# From BindingDB's records for doi:10.1021/jm010468s (Pfizer, 2002)
# Non-standard residues stand in square brackets, D forms with d. Residues, ends and D or L forms follow the SMILES beside them. Trp(6-Cl) = N[C@@H](Cc1c[nH]c2cc(Cl)ccc12)C(=O)O; Pmp = N[C@@H](Cc1ccc(CP(=O)(O)O)cc1)C(=O)O; Ac3c = NC1(C(=O)O)CC1; Aib = CC(C)(N)C(=O)O
# Assay: Inhibition of p53 binding to […] (hdm2-GST)
smiles,measurement,value
"CSCC[C@H](NC(=O)[C@H](Cc1ccccc1)NC(C)=O)C(=O)NC(C)(C)C(=O)N[C@@H](Cc1ccc(CP(=O)(O)O)cc1)C(=O)N[C@@H](Cc1c[nH]c2cc(Cl)ccc12)C(=O)N[C@@H](CCC(=O)O)C(=O)NC1(C(=O)N[C@@H](CC(C)C)C(N)=O)CC1 [Ac-Phe-Met-Aib-Pmp-6-Cl-Trp-Glu-Ac3c-Leu-NH2, GST-hdm2 binding peptide] (Ac-FM[Aib][Pmp][Trp(6-Cl)]E[Ac3c]L-NH2)",IC50,5 nM
